We go through 34 compounds from ChEMBL document CHEMBL5154760, “Metabolism guided optimization of peptidomimetics as non-covalent proteasome inhibitors for cancer treatment” (Eur J Med Chem, 2022).

The structures appear in SMILES notation. Calls of active or inactive are those of the source. No cut-off for these calls is given here.

One series concerns MM1.S. As to the kind of experiment: Antiproliferative activity against human MM1.S cells after 72 hrs by MTS assay. It is filed as functional, cell-based. (Tetrazolium dyes change colour on reduction, which living cells bring about.)
A short description of series [1]: In vivo inhibition of chymotrypsin-like activity of 20S proteasome in ICR mouse at 5 mg/kg, iv. It is filed as functional.
Another series has as its system RPMI-8226. In words: Antiproliferative activity against human RPMI-8226 cells after 72 hrs by MTS assay. The settings on record: RPMI-8226, 72 h. Type of series: functional, cell-based.
Series [2] deals with 20S proteasome (Homo sapiens) (UniProt P49721+P20618+P28074+P28062+P28065+P28072+P25786+P25787+P25788+P25789+P28066+P60900+O14818+Q8TAA3+P40306+A5LHX3+P49720+P28070+Q99436). In words: Inhibition of chymotrypsin-like activity of 20S proteasome in human MM1.S cells assessed as accumulation of polyubiquitinated proteins at 10 to 1000 nM and measured by Western blot analysis. It is filed as cell-based. The following applies: dose 10-1000 nM. Background: In western blotting, separated proteins are transferred to a membrane and probed.

A further series has as its target 20S proteasome. In words: Inhibition of chymotrypsin-like activity of human 20S proteasome using Suc-Leu Leu-Val-Tyr-AMC as substrate preincubated for 15 mins followed by substrate addition measured by fluorescence assay. Type of series: protein-complex assay.
In the next series the test system is MV4-11. In words: Antiproliferative activity against human MV4-11 cells after 72 hrs by MTS assay. The settings on record: MV4-11, 72 h. It is filed as functional, cell-based.
Series [3] in a line: Stability of the compound in mouse blood assessed as half-life measured by LC-MS/MS analysis. Type of series: ADME, tissue-based.

One may read the IC50 as the point on the concentration scale where inhibition reaches its midpoint. Read a high IC50 as a need for much substance. Usually inhibition in vivo stands for the drop in the measured response relative to a control, in per cent. A higher inhibition in vivo goes with a response far below the control. What is called half-life is how long it takes for the measured level to halve. Regarding `CCN(C(=O)C1CCN(C(=O)N[C@@H](CC(=O)NCC(C)(C)C)C(=O)N[C@@H](CCc2ccccc2)C(=O)N[C@@H]2CCCc3ccccc32)CC1)c1ccccc1`, the IC50 in the series with MM1.S turned out to be 9.07 nM; in the series on RPMI-8226, 15.3 nM; against 20S proteasome, 8.39 nM; in the series on MV4-11, 2.46 nM. In series [1], testing at 5 mg/kg gave an inhibition in vivo of 50%. The inhibition entry in series [2] is “Active”. The half-life in series [3] was 5.49 h.
For `CN(Cc1ccccc1Cl)C(=O)[C@H](CCc1ccccc1)NC(=O)[C@H](CC(=O)NCC(C)(C)C)NC(=O)N1CCC(C(=O)Nc2cccnc2)CC1`, the IC50 against 20S proteasome was 1740 nM.
On the same count and under the same terms, with `C[C@H](c1ccccc1)N(C)C(=O)[C@H](CCc1ccccc1)NC(=O)[C@H](CC(=O)NCC(C)(C)C)NC(=O)N1CCC(C(=O)N(C)c2cccnc2)CC1` the figure was greater than 10000 nM.
As for `CN(C(=O)C1CCN(C(=O)N[C@@H](CC(=O)NCC(C)(C)C)C(=O)N[C@@H](CCc2ccccc2)C(=O)N[C@@H]2CCCc3ccccc32)CC1)c1ccc(Cl)cc1`, the IC50 came to 26.9 nM in the series on MM1.S, 20.8 nM in the series on RPMI-8226, 6.95 nM against 20S proteasome and 4.06 nM in the series with MV4-11.
As to `CN(C(=O)C1CCN(C(=O)N[C@@H](CC(=O)NCC(C)(C)C)C(=O)N[C@@H](CCc2ccccc2)C(=O)N[C@@H]2CCCc3ccccc32)CC1)c1cccc(Cl)c1`, it took 22.6 nM to reach half-maximal inhibition against 20S proteasome (IC50).
For `CN(Cc1ccccc1Cl)C(=O)[C@H](CCc1ccccc1)NC(=O)[C@H](CC(=O)NCC(C)(C)C)NC(=O)N1CCC(C(=O)N(C)c2cccnc2)CC1`, the IC50 against 20S proteasome was greater than 10000 nM.
`CN(C(=O)C1CCN(C(=O)N[C@@H](CC(=O)NCC(C)(C)C)C(=O)N[C@@H](CCc2ccccc2)C(=O)N[C@@H]2CCCc3ccccc32)CC1)c1ccccc1`: the IC50 with MM1.S was found to be 8.82 nM; with RPMI-8226, 20.7 nM; against 20S proteasome, 9.31 nM; with MV4-11 it was 2.74 nM. The inhibition result in series [2] is “Active”. Besides, the half-life in series [3] was determined as 2.46 h.
In turn, `CC(C)(C)CNC(=O)C[C@H](NC(=O)N1CCC(C(=O)Nc2nccs2)CC1)C(=O)N[C@@H](CCc1ccccc1)C(=O)NCc1ccccc1Cl` displayed an IC50 at 20S proteasome of 0.92 nM. In series [3], the half-life was 0.613 h.
`CC(C)(C)CNC(=O)C[C@H](NC(=O)N1CCC(NC(=O)Nc2ccc(Cl)cc2)CC1)C(=O)N[C@@H](CCc1ccccc1)C(=O)N[C@@H]1CCCc2ccccc21` had an IC50 against 20S proteasome of 41.2 nM.
Still for that read-out and setting: the same measure for `C[C@@H](c1ccccc1)N(C)C(=O)[C@H](CCc1ccccc1)NC(=O)[C@H](CC(=O)NCC(C)(C)C)NC(=O)N1CCC(C(=O)Nc2cccnc2)CC1`: greater than 10000 nM; for `CC(C)(C)CNC(=O)C[C@H](NC(=O)N1CCC(C(=O)Nc2cccnc2)CC1)C(=O)N[C@@H](CCc1ccccc1)C(=O)N1CCc2ccccc2C1`: 1590 nM; for `CN(C(=O)C1CCN(C(=O)N[C@@H](CC(=O)NCC(C)(C)C)C(=O)N[C@@H](CCc2ccccc2)C(=O)N2CCc3ccccc3C2)CC1)c1cccnc1`: greater than 10000 nM.
On to `CN(C(=O)C1CCN(C(=O)N[C@@H](CC(=O)NCC(C)(C)C)C(=O)N[C@@H](CCc2ccccc2)C(=O)N[C@@H]2CCCc3ccccc32)CC1)c1ccc(F)cc1`, for which the IC50 came to 17.7 nM with MM1.S, 26.2 nM with RPMI-8226, 9.38 nM against 20S proteasome and 4.87 nM in the series with MV4-11.
The matching figures for `CC(C)(C)CNC(=O)C[C@H](NC(=O)N1CCC(C(=O)Nc2cccnc2)CC1)C(=O)N[C@@H](CCc1ccccc1)C(=O)N[C@@H]1CCCc2ccccc21`: 35.1 nM, 40.7 nM, 4.03 nM and 6.83 nM.
On 20S proteasome, `CN(C(=O)C1CCN(C(=O)N[C@@H](CC(=O)NCC(C)(C)C)C(=O)N[C@@H](CCc2ccccc2)C(=O)N[C@@H]2CCCc3ccccc32)CC1)c1ccccc1Cl` displayed an IC50 of 21.6 nM.
The same measure, in the same setting: with `CC(C)(C)CNC(=O)C[C@H](NC(=O)N1CCN(C(=O)Nc2ccc(Cl)cc2)CC1)C(=O)N[C@@H](CCc1ccccc1)C(=O)N[C@@H]1CCCc2ccccc21` the figure was 23.7 nM; with `C[C@H](NC(=O)[C@H](CCc1ccccc1)NC(=O)[C@H](CC(=O)NCC(C)(C)C)NC(=O)N1CCC(C(=O)N(C)c2cccnc2)CC1)c1ccccc1`, greater than 10000 nM.
As to `CN(C(=O)C1CCN(C(=O)N[C@@H](CC(=O)NCC(C)(C)C)C(=O)N[C@@H](CCc2ccccc2)C(=O)N[C@@H]2CCCc3ccccc32)CC1)c1cccnc1`, the IC50 stood at 54.2 nM in the series on MM1.S, 81.7 nM in the series on RPMI-8226, 8.59 nM at 20S proteasome and 12 nM in the series on MV4-11.
On 20S proteasome, `CC(C)(C)CNC(=O)C[C@H](NC(=O)N1CCN(C(=O)c2cccnc2)CC1)C(=O)N[C@@H](CCc1ccccc1)C(=O)N[C@@H]1CCCc2ccccc21` gave an IC50 of 25 nM.
Same read-out and setting: the same measure for `CC(C)(C)CNC(=O)C[C@H](NC(=O)N1CCC(C(=O)Nc2cnccn2)CC1)C(=O)N[C@@H](CCc1ccccc1)C(=O)N1CCc2ccccc2C1`: greater than 10000 nM; for `C[C@@H](NC(=O)[C@H](CCc1ccccc1)NC(=O)[C@H](CC(=O)NCC(C)(C)C)NC(=O)N1CCC(C(=O)N(C)c2cccnc2)CC1)c1ccccc1`: 99.8 nM; for `CN(C(=O)C1CCN(C(=O)N[C@@H](CC(=O)NCC(C)(C)C)C(=O)N[C@@H](CCc2ccccc2)C(=O)N[C@H]2CCCc3ccccc32)CC1)c1cccnc1`: greater than 10000 nM.
Still for that read-out and setting: the same measure for `CC(C)(C)CNC(=O)C[C@H](NC(=O)N1CCC(C(=O)Nc2cccnc2)CC1)C(=O)N[C@@H](CCc1ccccc1)C(=O)N[C@H]1CCCc2ccccc21`: 4480 nM.
Still for that read-out and setting: the same measure for `COc1ccc(N(C)C(=O)C2CCN(C(=O)N[C@@H](CC(=O)NCC(C)(C)C)C(=O)N[C@@H](CCc3ccccc3)C(=O)N[C@@H]3CCCc4ccccc43)CC2)cc1`: 25 nM.
For `CN(C(=O)C1CCN(C(=O)N[C@@H](CC(=O)NCC(C)(C)C)C(=O)N[C@@H](CCc2ccccc2)C(=O)N[C@@H]2CCCc3ccccc32)CC1)c1ccncc1`, the IC50 was 84 nM in the series with MM1.S, greater than 100 nM in the series on RPMI-8226, 9.26 nM against 20S proteasome and 51.7 nM with MV4-11.
In the case of `CN(C(=O)C1CCN(C(=O)N[C@@H](CC(=O)NCC(C)(C)C)C(=O)N[C@@H](CCc2ccccc2)C(=O)N[C@@H]2CCCc3ccccc32)CC1)c1nccs1`, the IC50 with MM1.S was found to be 8.36 nM; in the series with RPMI-8226 it was 12.1 nM; against 20S proteasome, 3.43 nM; with MV4-11, 1.57 nM. This compound also gave an inhibition in vivo at 5 mg/kg in series [1] of 50%. The inhibition entry in series [2] was “Active”. In addition, the half-life in series [3] was found to be 1.4 h.
As for `CC(C)(C)CNC(=O)C[C@H](NC(=O)N1CCC(C(=O)N2CCc3ccccc32)CC1)C(=O)N[C@@H](CCc1ccccc1)C(=O)N[C@@H]1CCCc2ccccc21`, the half-inhibitory concentration (IC50) with MM1.S worked out at 16.9 nM; in the series with RPMI-8226, 19.9 nM; on 20S proteasome, 7.24 nM; with MV4-11, 4.6 nM.
In the same order, the values of `CC(C)(C)CNC(=O)C[C@H](NC(=O)N1CCC(C(=O)N2CCCc3ccccc32)CC1)C(=O)N[C@@H](CCc1ccccc1)C(=O)N[C@@H]1CCCc2ccccc21` are 12.4 nM, 24 nM, 8.09 nM and 4.93 nM.
The matching figures for `CN(C(=O)c1cccnc1)C1CCN(C(=O)N[C@@H](CC(=O)NCC(C)(C)C)C(=O)N[C@@H](CCc2ccccc2)C(=O)N[C@@H]2CCCc3ccccc32)CC1`: 33.5 nM, 60.4 nM, 5.15 nM and 7.65 nM.
Compound `C[C@@H](c1ccccc1)N(C)C(=O)[C@H](CCc1ccccc1)NC(=O)[C@H](CC(=O)NCC(C)(C)C)NC(=O)N1CCC(C(=O)N(C)c2cccnc2)CC1` yielded an IC50 against 20S proteasome greater than 10000 nM.
Turning to `CC(C)C[C@H](NC(=O)[C@H](CCc1ccccc1)NC(=O)CN1CCOCC1)C(=O)N[C@@H](Cc1ccccc1)C(=O)N[C@@H](CC(C)C)C(=O)[C@]1(C)CO1`, the results for the IC50 in the series with MM1.S, in the series with RPMI-8226 and in the series with MV4-11 were 9.15 nM, 6.35 nM and 0.983 nM, respectively.
With `CN(C(=O)C1CCN(C(=O)N[C@@H](CC(=O)NCC(C)(C)C)C(=O)N[C@@H](CCc2ccccc2)C(=O)N[C@@H]2CCCc3ccccc32)CC1)c1ccccn1`, the IC50 in the series with MM1.S is 20.6 nM; in the series with RPMI-8226, 33.7 nM; on 20S proteasome, 8.92 nM; with MV4-11, 4.85 nM.
`C[C@@H](NC(=O)[C@H](CCc1ccccc1)NC(=O)[C@H](CC(=O)NCC(C)(C)C)NC(=O)N1CCC(C(=O)Nc2cccnc2)CC1)c1ccccc1` showed an IC50 against 20S proteasome of 20.3 nM.
On to `C[C@H](NC(=O)[C@H](CCc1ccccc1)NC(=O)[C@H](CC(=O)NCC(C)(C)C)NC(=O)N1CCC(C(=O)Nc2cccnc2)CC1)c1ccccc1`, for which, on 20S proteasome, the IC50 was greater than 10000 nM.
